# Measurements as given in patent US20230116114A1, “COMPOUNDS AND COMPOSITIONS FOR TREATING CNS DISORDERS” (Blue Oak Pharmaceuticals, Inc., priority 2020, published 2023).
# Counter-ions that a name gives are not always drawn.
# Test system: mice
# Experiment: SmartCube in vivo neuropharmacological behavioral assay
# Conditions: for minimal effective dose: Mus musculus, ip, 0.25 h, dose having 50% or more total activity in SmartCube, i.p., read-out: MED (minimal effective dose); for AD: antidepressant (percent probability) / AG: analgesic (percent probability) / AP: antipsychotic (percent probability) / AX: anxiolytic (percent probability) / CE: cognitive enhancer (percent probability) / HA: hallucinogenic (percent probability) / MS: mood stabilizer (percent probability) / PS (percent probability) / SD: sedative hypnotic (percent probability) / SE: side effects (percent probability) / UN: uncharacterized CNS activity (percent probability) / XG: anxiogenic (percent probability): SmartCube, i.p. 15 min before test, result at the MED
# Description: The compounds were evaluated for their CNS related properties (e.g., the treatment, prevention or diagnosis of CNS or CNS-related disorders and/or amelioration of symptoms) using neuropharmacological screening methods described in S. L. Roberts et al., Front. Neurosci. 2011, 5:103 (hereinafter referred to as “Roberts,” the contents of which are incorporated herein by reference in their entirety).
# According to Roberts, intact systems are useful in detecting improvement in disease-relevant endpoints, because psychiatric diseases generally result from disorders of cell-cell communication or circuitry. The endpoints are typically behavioral in nature, often requiring human observation and interpretation. In order to test multiple compounds for behavioral effects relevant to neurological and psychiatric diseases and disorders, PsychoGenics, Inc. (Paramus, N.J. “PGI”) developed SmartCube®, an automated system in which behaviors of compound-treated mice are captured by digital video and analyzed with computer algorithms to facilitate testing of multiple compounds for behavioral effects relevant to psychiatric disease. (D. Brunner et al., Drug Discov. Today 2002, 7:S107-S112; Alexandrov et al., Eur. J. Pharmacol. 2015, 753:127-134; the contents of each of which are incorporated herein by reference in their entirety).
# The SmartCube® system is described in Example 2.2 of U.S. Pat. No. 9,758,529 and Example 289 of WIPO Publication No. WO2018/023070, the contents of each of which are incorporated herein by reference in their entirety.
# According to the present disclosure, compounds identified may be evaluated using the SmartCube® system. The results of such analysis correlate certain patterns or combinations of behaviors to CNS effects along a percent probability scale of 0-100 where zero (0) reflects the limit of quantitation (LOQ).
# The compounds of the present disclosure were evaluated for their CNS related properties (e.g., the treatment, prevention or diagnosis of CNS or CNS-related disorders and/or amelioration of symptoms) using neuropharmacological screening methods described in S. L. Roberts et al., Front. Neurosci. 2011, 5:103 (hereinafter referred to as “Roberts,” the contents of which are incorporated herein by reference in their entirety).
# The SmartCube® system described herein was utilized to compare the behavioral signature of a test compound to a database of behavioral signatures obtained using a large set of diverse reference compounds (including but not limited to antipsychotics, anxiolytics, antidepressants and bipolar disorder medicine), thereby predicting the neuropharmacological effects of a test compound by similarity to major classes of compounds. It produces an activity signature indicating the probability that the activity of the test compound at the administered dose matches a given class of neuropharmacological agents. The test compound is simultaneously compared against multiple classes of agents; thus, a separate probability is generated for each behavioral effect measured (such as but not limited to anxiolytic activity and analgesic activity).
# The compounds of the present disclosure were dissolved in a mixture of Pharmasolve™ (N-methyl-2-pyrrolidone (NMP)) and were injected i.p. 15 min. before the behavioral test. For each compound, injections were administered at different dose levels (e.g., 0.3, 1, 3, 10 and 30 mg per kg (mpk)). A compound's minimal effective dose (MED; see Table 3) is a measure of the compound's potency. The MED was defined as the dose (in mpk) having 50% or more total activity in SmartCube®. For each behavioral effect measured, results at the MED are presented. CNS activities of the compounds were recorded (see Table 2). In Table 1, a key to the percent probabilities (probability ×100) for each behavioral effect (“X”) are defined provided, where LOQ is the limit of quantification.
smiles,measurement,value
"CC([C@@H](C)F)N1C2CCCC1c1ccccc12 (stereo in doubt) [Compound 23, 12-(3-Fluorobutan-2-yl)-12-azatricyclo[6.3.1.0^2,7]dodeca-2,4,6-triene hydrochloride]",minimal effective dose,> 30 mg/kg
same,AD: antidepressant (percent probability),+ (LOQ ≤ X < 5%)
same,AG: analgesic (percent probability),+ (LOQ ≤ X < 5%)
same,AP: antipsychotic (percent probability),+ (LOQ ≤ X < 5%)
same,AX: anxiolytic (percent probability),+ (LOQ ≤ X < 5%)
same,CE: cognitive enhancer (percent probability),+ (LOQ ≤ X < 5%)
same,HA: hallucinogenic (percent probability),+ (LOQ ≤ X < 5%)
same,MS: mood stabilizer (percent probability),+ (LOQ ≤ X < 5%)
same,PS (percent probability),+ (LOQ ≤ X < 5%)
same,SD: sedative hypnotic (percent probability),+ (LOQ ≤ X < 5%)
same,SE: side effects (percent probability),+ (LOQ ≤ X < 5%)
same,UN: uncharacterized CNS activity (percent probability),++ (5% ≤ X < 25%)
same,XG: anxiogenic (percent probability),+ (LOQ ≤ X < 5%)
"CC([C@H](C)F)N1C2CCCC1c1ccccc12 (stereo in doubt) [Compound 24, 12-(3-Fluorobutan-2-yl)-12-azatricyclo[6.3.1.0^2,7]dodeca-2,4,6-triene hydrochloride]",minimal effective dose,10 to 30 mg/kg
same,AD: antidepressant (percent probability),+++ (25% ≤ X < 50%)
same,AG: analgesic (percent probability),+ (LOQ ≤ X < 5%)
same,AP: antipsychotic (percent probability),+ (LOQ ≤ X < 5%)
same,AX: anxiolytic (percent probability),+ (LOQ ≤ X < 5%)
same,CE: cognitive enhancer (percent probability),+ (LOQ ≤ X < 5%)
same,HA: hallucinogenic (percent probability),+ (LOQ ≤ X < 5%)
same,MS: mood stabilizer (percent probability),+ (LOQ ≤ X < 5%)
same,PS (percent probability),++ (5% ≤ X < 25%)
same,SD: sedative hypnotic (percent probability),+ (LOQ ≤ X < 5%)
same,SE: side effects (percent probability),+ (LOQ ≤ X < 5%)
same,UN: uncharacterized CNS activity (percent probability),+ (LOQ ≤ X < 5%)
same,XG: anxiogenic (percent probability),+ (LOQ ≤ X < 5%)
"CO[C@H]1CC[C@H]2c3ccccc3[C@@H]1N2C(C)C (stereo in doubt) [Compound 28, 9-methoxy-12-(propan-2-yl)-12-azatricyclo[6.3.1.0^2,7]dodeca-2,4,6-triene hydrochloride]",minimal effective dose,10 to 30 mg/kg
same,AD: antidepressant (percent probability),++ (5% ≤ X < 25%)
same,AG: analgesic (percent probability),++ (5% ≤ X < 25%)
same,AP: antipsychotic (percent probability),+ (LOQ ≤ X < 5%)
same,AX: anxiolytic (percent probability),++ (5% ≤ X < 25%)
same,CE: cognitive enhancer (percent probability),+ (LOQ ≤ X < 5%)
same,HA: hallucinogenic (percent probability),+ (LOQ ≤ X < 5%)
same,MS: mood stabilizer (percent probability),+ (LOQ ≤ X < 5%)
same,PS (percent probability),++ (5% ≤ X < 25%)
same,SD: sedative hypnotic (percent probability),+ (LOQ ≤ X < 5%)
same,SE: side effects (percent probability),+ (LOQ ≤ X < 5%)
same,UN: uncharacterized CNS activity (percent probability),+++ (25% ≤ X < 50%)
same,XG: anxiogenic (percent probability),+ (LOQ ≤ X < 5%)
"C[C@H]1CC[C@@H]2N[C@H]1c1ccccc12 (stereo in doubt) [Compound 32, 9-Methyl-12-azatricyclo[6.3.1.0^2,7]dodeca-2,4,6-triene hydrochloride]",minimal effective dose,10 to 30 mg/kg
same,AD: antidepressant (percent probability),+ (LOQ ≤ X < 5%)
same,AG: analgesic (percent probability),+ (LOQ ≤ X < 5%)
same,AP: antipsychotic (percent probability),+ (LOQ ≤ X < 5%)
same,AX: anxiolytic (percent probability),+ (LOQ ≤ X < 5%)
same,CE: cognitive enhancer (percent probability),+ (LOQ ≤ X < 5%)
same,HA: hallucinogenic (percent probability),++++ (50% ≤ X < 100%)
same,MS: mood stabilizer (percent probability),+ (LOQ ≤ X < 5%)
same,PS (percent probability),++ (5% ≤ X < 25%)
same,SD: sedative hypnotic (percent probability),+ (LOQ ≤ X < 5%)
same,SE: side effects (percent probability),+ (LOQ ≤ X < 5%)
same,UN: uncharacterized CNS activity (percent probability),+ (LOQ ≤ X < 5%)
same,XG: anxiogenic (percent probability),+ (LOQ ≤ X < 5%)
"CC(C)N1C2CC[C@H](C)C1c1ccccc12 (stereo in doubt) [Compound 33, 9-Methyl-12-(propan-2-yl)-12-azatricyclo[6.3.1.0^2,7]dodeca-2,4,6-triene hydrochloride]",minimal effective dose,1 to 10 mg/kg
same,AD: antidepressant (percent probability),++++ (50% ≤ X < 100%)
same,AG: analgesic (percent probability),+ (LOQ ≤ X < 5%)
same,AP: antipsychotic (percent probability),+ (LOQ ≤ X < 5%)
same,AX: anxiolytic (percent probability),+ (LOQ ≤ X < 5%)
same,CE: cognitive enhancer (percent probability),+ (LOQ ≤ X < 5%)
same,HA: hallucinogenic (percent probability),+ (LOQ ≤ X < 5%)
same,MS: mood stabilizer (percent probability),+ (LOQ ≤ X < 5%)
same,PS (percent probability),+ (LOQ ≤ X < 5%)
same,SD: sedative hypnotic (percent probability),+ (LOQ ≤ X < 5%)
same,SE: side effects (percent probability),+ (LOQ ≤ X < 5%)
same,UN: uncharacterized CNS activity (percent probability),+ (LOQ ≤ X < 5%)
same,XG: anxiogenic (percent probability),+ (LOQ ≤ X < 5%)
"CO[C@@H]1CC[C@H]2c3ccccc3[C@@H]1N2C(C)C (stereo in doubt) [Compound 34, 9-Methoxy-12-(propan-2-yl)-12-azatricyclo[6.3.1.0^2,7]dodeca-2,4,6-triene hydrochloride]",minimal effective dose,10 to 30 mg/kg
same,AD: antidepressant (percent probability),++ (5% ≤ X < 25%)
same,AG: analgesic (percent probability),+ (LOQ ≤ X < 5%)
same,AP: antipsychotic (percent probability),+ (LOQ ≤ X < 5%)
same,AX: anxiolytic (percent probability),++ (5% ≤ X < 25%)
same,CE: cognitive enhancer (percent probability),+ (LOQ ≤ X < 5%)
same,HA: hallucinogenic (percent probability),+ (LOQ ≤ X < 5%)
same,MS: mood stabilizer (percent probability),+ (LOQ ≤ X < 5%)
same,PS (percent probability),+ (LOQ ≤ X < 5%)
same,SD: sedative hypnotic (percent probability),+ (LOQ ≤ X < 5%)
same,SE: side effects (percent probability),+ (LOQ ≤ X < 5%)
same,UN: uncharacterized CNS activity (percent probability),++ (5% ≤ X < 25%)
same,XG: anxiogenic (percent probability),+ (LOQ ≤ X < 5%)
"c1ccc2c(c1)C1CCCC2N1 [Compound 1, 12-Azatricyclo[6.3.1.0^2,7]dodeca-2,4,6-triene]",minimal effective dose,10 to 30 mg/kg
same,AD: antidepressant (percent probability),++ (5% ≤ X < 25%)
same,AG: analgesic (percent probability),++ (5% ≤ X < 25%)
same,AP: antipsychotic (percent probability),+ (LOQ ≤ X < 5%)
same,AX: anxiolytic (percent probability),++ (5% ≤ X < 25%)
same,CE: cognitive enhancer (percent probability),+++ (25% ≤ X < 50%)
same,HA: hallucinogenic (percent probability),+ (LOQ ≤ X < 5%)
same,MS: mood stabilizer (percent probability),+ (LOQ ≤ X < 5%)
same,PS (percent probability),+ (LOQ ≤ X < 5%)
same,SD: sedative hypnotic (percent probability),+ (LOQ ≤ X < 5%)
same,SE: side effects (percent probability),++ (5% ≤ X < 25%)
same,UN: uncharacterized CNS activity (percent probability),+ (LOQ ≤ X < 5%)
same,XG: anxiogenic (percent probability),+ (LOQ ≤ X < 5%)
